Strand notation (5' to 3'): a small letter for the sugar, then the base; units joined by * are phosphorothioate-linked, units joined directly phosphodiester-linked; [ ] holds rarer units or linkages, { } end groups; capitals alone tell only the bases. e = 2'-O-(2-methoxyethyl) (MOE); [5mC] = 5-methylcytosine; d = 2'-deoxy (DNA)
Legend:
Format in all cases: in vivo
[1] = Body and organ weights of cynomolgus monkeys (Example 46); design: Liver weight / Spleen weight / Kidney weight: unit not given here; conditions: for Kidney weight / Liver weight / Spleen weight: day 55, after euthanasia
Protocol: (§1) Groups, each consisting of two male and two female monkeys, were injected subcutaneously with 25 mg/kg of ISIS 416850, ISIS 449709, ISIS 445522, ISIS 449710, ISIS 449707, ISIS 449711, ISIS 449708, 416858, and ISIS 445531. Antisense oligonucleotide was administered to the monkeys at 25 mg/kg three times per week for week 1 and 25 mg/kg twice per week for weeks 2 to 8. A control group, consisting of two male and two female monkeys was injected subcutaneously with PBS according to the same dosing regimen. Body weights were taken 14 days and 7 days before the start of treatment and were then measured weekly throughout the treatment period. Blood samples were collected 14 days and 5 days before the start of treatment and subsequently several times during the dosing regimen for PT and aPTT measurements, and measurement of various hematologic factors. On day 55, the monkeys were euthanized by exsanguination while under deep anesthesia, and organs harvested for further analysis.
Organ weights were taken after the animals were euthanized on day 55, and livers, kidneys and spleens were harvested.

[2] = Liver function, ALT, AST, bilirubin in cynomolgus monkeys (Example 46); conditions: plasma
Protocol: as §1
Plasma concentrations of alanine transaminase (ALT) and aspartate transaminase (AST) were measured and the results are presented in Tables 152 and 153 expressed in IU/L. Plasma levels of bilirubin were also measured and results are presented in Table 154 expressed in mg/dL. As observed in Tables 152-154, there were no significant increases in any of the liver metabolic markers after antisense oligonucleotide treatment.

[3] = Kidney function, BUN, urine protein to creatinine ratio in cynomolgus monkeys (Example 46); conditions: for Urine protein/creatinine ratio: day 49
Protocol: as §1
To evaluate the impact of ISIS oligonucleotides on kidney function, urine samples were collected on different days. […] The ratio of urine protein to creatinine in urine samples after antisense oligonucleotide treatment was also calculated for day 49 and results are presented in Table 156. As observed in Tables 155 and 156, there were no significant increases in any of the kidney metabolic markers after antisense oligonucleotide treatment.

[4] = Day −5 (before start of treatment)
[5] = Day −14 (before start of treatment)

Row | Substance | body weight ([1]; day 1) | body weight ([1]; day 8) | body weight ([1]; day 15) | body weight ([1]; day 22) | body weight ([1]; day 29) | body weight ([1]; day 36) | body weight ([1]; day 43) | body weight ([1]; day 50) | Kidney weight [1] | Liver weight [1] | Spleen weight [1] | body weight ([1]; day −7) | body weight ([1]; day −14) | ALT ([2]; Day 31) | AST ([2]; Day 31) | Bilirubin ([2]; Day 31) | ALT ([2]; Day 55) | AST ([2]; Day 55) | Bilirubin ([2]; Day 55) | ALT ([2]; Day −5) | further results
1 | ISIS 445522: 5-8-5 or 6-8-6 MOE microwalk gapmer (Table 44) (antisense eG*e[5mC]*eA*e[5mC]*eA*dG*dT*dT*dT*d[5mC]*dT*dG*dG*e[5mC]*eA*eG*eG*e[5mC]) | 2047 g | 2094 g | 2092 g | 2114 g | 2125 g | 2121 g | 2142 g | 2127 g | 0.55 | 2.6 | 0.23 | 2042 g | 2050 g | 40 IU/L | 46 IU/L | 0.14 mg/dL | 60 IU/L | 79 IU/L | 0.18 mg/dL | 45 IU/L | AST ([2]; Day −5): 47 IU/L; Bilirubin ([2]; Day −5): 0.20 mg/dL; ALT ([2]; Day −14): 43 IU/L; AST ([2]; Day −14): 62 IU/L; Bilirubin ([2]; Day −14): 0.24 mg/dL; BUN levels ([3]; Day 31): 22 mg/dL; BUN levels ([3]; Day 55): 22 mg/dL; BUN levels [3, 4]: 22 mg/dL; BUN levels [3, 5]: 23 mg/dL; Urine protein/creatinine ratio [3]: 0.01
2 | ISIS 449709: 3-8-3, 4-8-4, 2-10-2, 3-10-3 or 4-10-4 MOE microwalk gapmer (Table 46) (antisense eG*e[5mC]*eA*e[5mC]*dA*dG*dT*dT*dT*d[5mC]*dT*dG*dG*d[5mC]*eA*eG*eG*e[5mC]) | 2112 g | 2075 g | 2085 g | 2117 g | 2068 g | 2064 g | 2106 g | 2147 g | 0.57 | 2.6 | 0.21 | 2093 g | 2044 g | 65 IU/L | 45 IU/L | 0.15 mg/dL | 102 IU/L | 71 IU/L | 0.18 mg/dL | 77 IU/L | AST ([2]; Day −5): 51 IU/L; Bilirubin ([2]; Day −5): 0.19 mg/dL; ALT ([2]; Day −14): 73 IU/L; AST ([2]; Day −14): 62 IU/L; Bilirubin ([2]; Day −14): 0.24 mg/dL; BUN levels ([3]; Day 31): 20 mg/dL; BUN levels ([3]; Day 55): 28 mg/dL; BUN levels [3, 4]: 21 mg/dL; BUN levels [3, 5]: 22 mg/dL; Urine protein/creatinine ratio [3]: 0.05
3 | ISIS 449708: 3-8-3, 4-8-4, 2-10-2, 3-10-3 or 4-10-4 MOE microwalk gapmer (Table 46) (antisense eA*e[5mC]*eA*dG*dT*dT*dT*d[5mC]*dT*dG*dG*e[5mC]*eA*eG) | 2130 g | 2148 g | 2125 g | 2110 g | 2095 g | 2100 g | 2125 g | 2076 g | 0.60 | 2.6 | 0.19 | 2163 g | 2096 g | 44 IU/L | 56 IU/L | 0.14 mg/dL | 46 IU/L | 50 IU/L | 0.14 mg/dL | 54 IU/L | AST ([2]; Day −5): 53 IU/L; Bilirubin ([2]; Day −5): 0.21 mg/dL; ALT ([2]; Day −14): 48 IU/L; AST ([2]; Day −14): 74 IU/L; Bilirubin ([2]; Day −14): 0.27 mg/dL; BUN levels ([3]; Day 31): 23 mg/dL; BUN levels ([3]; Day 55): 23 mg/dL; BUN levels [3, 4]: 23 mg/dL; BUN levels [3, 5]: 25 mg/dL; Urine protein/creatinine ratio [3]: 0.00
4 | ISIS 449707: 3-8-3, 4-8-4, 2-10-2, 3-10-3 or 4-10-4 MOE microwalk gapmer (Table 46) (antisense e[5mC]*eA*e[5mC]*eA*dG*dT*dT*dT*d[5mC]*dT*dG*dG*e[5mC]*eA*eG*eG) | 2107 g | 2088 g | 2120 g | 2142 g | 2155 g | 2158 g | 2197 g | 2185 g | 0.53 | 2.5 | 0.24 | 2083 g | 2072 g | 52 IU/L | 50 IU/L | 0.13 mg/dL | 63 IU/L | 52 IU/L | 0.16 mg/dL | 56 IU/L | AST ([2]; Day −5): 53 IU/L; Bilirubin ([2]; Day −5): 0.19 mg/dL; ALT ([2]; Day −14): 54 IU/L; AST ([2]; Day −14): 64 IU/L; Bilirubin ([2]; Day −14): 0.27 mg/dL; BUN levels ([3]; Day 31): 21 mg/dL; BUN levels ([3]; Day 55): 20 mg/dL; BUN levels [3, 4]: 21 mg/dL; BUN levels [3, 5]: 25 mg/dL; Urine protein/creatinine ratio [3]: 0.03
5 | ISIS 416858: MOE gapmer, nucleobases 1275 to 1318 of SEQ ID NO: 1 (Table 8) (antisense ACGGCATTGGTGCACAGTTT; MOE gapmer, wing and gap sizes not given here) | 2115 g | 2149 g | 2162 g | 2188 g | 2196 g | 2210 g | 2238 g | 2225 g | 0.47 | 2.6 | 0.24 | 2092 g | 2073 g | 46 IU/L | 60 IU/L | 0.16 mg/dL | 58 IU/L | 69 IU/L | 0.16 mg/dL | 66 IU/L | AST ([2]; Day −5): 100 IU/L; Bilirubin ([2]; Day −5): 0.23 mg/dL; ALT ([2]; Day −14): 43 IU/L; AST ([2]; Day −14): 64 IU/L; Bilirubin ([2]; Day −14): 0.25 mg/dL; BUN levels ([3]; Day 31): 23 mg/dL; BUN levels ([3]; Day 55): 24 mg/dL; BUN levels [3, 4]: 24 mg/dL; BUN levels [3, 5]: 25 mg/dL; Urine protein/creatinine ratio [3]: 0.05

Source: US20230263822A1, “MODULATION OF FACTOR 11 EXPRESSION” (Ionis Pharmaceuticals, Inc., priority 2008, published 2023)
